Measured values taken from the supplement of paper PMC4862054.

Key:
Conditions in all cases: incubation time: 72 h
BT-474 [1] = assay: normalised response (% of control), CellTiter-Glo; higher = more viable cells (100 = DMSO, 0 = benzethonium chloride kill control)
Outline: (§1)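 CellTox Green fluorescence (485/520 nm) and, after 10 min at room temperature, CellTiter-Glo luminescence were read from breast cancer cell lines incubated 72 h in 384-well plates. Cells were seeded as 20 µl suspension onto compound at 5 concentrations in 10-fold steps over a 10,000-fold range chosen per compound. Each plate was normalised to 0.1 % DMSO (100) and a positive kill control (0). Values are normalised signals, one per concentration.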

BT-549 [2] = assay: as above
Outline: as §1

CAL-120 [3] = assay: as above
Outline: as §1

CAL-148 [4] = assay: as above
Outline: as §1

CAL-51 [5] = assay: as above
Outline: as §1

CAL-85-1 [6] = assay: as above
Outline: as §1

DU-4475 [7] = assay: as above
Outline: as §1

HCC1143 [8] = assay: as above
Outline: as §1

HCC1599 [9] = assay: as above
Outline: as §1

HCC1937 [10] = assay: as above
Outline: as §1

HDQ-P1 [11] = assay: as above
Outline: as §1

Hs578T [12] = assay: as above
Outline: as §1

MCF-10A = assay: as above
Outline: as §1

MDA-MB-231 [13] = assay: as above
Outline: as §1

MDA-MB-436 [14] = assay: as above
Outline: as §1

MDA-MB-453 [15] = assay: as above
Outline: as §1

MDA-MB-468 [16] = assay: as above
Outline: as §1

MFM-223 [17] = assay: as above
Outline: as §1

SK-BR-3 [18] = assay: as above
Outline: as §1

BT-474 [19] = assay: normalised viability (% of control), CellTiter-Blue; higher = more viable cells (100 = DMSO, 0 = benzethonium chloride kill control)
Outline: (§2)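 Compound dissolved in 5 µl medium was pre-loaded into 384-well plates, and breast cancer cell lines in 20 µl suspension were seeded on top and incubated 72 h. After adding 2.5 µl CellTiter-Blue reagent for 2 h at 37 °C, fluorescence was read at 560/590 nm. Plates were normalised to vehicle (100) and a positive kill control (0), with Z'-factor quality control. Each value is normalised viability at a single listed concentration from the series.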

BT-549 [20] = assay: as above
Outline: as §2

CAL-120 [21] = assay: as above
Outline: as §2

CAL-148 [22] = assay: as above
Outline: as §2

CAL-51 [23] = assay: as above
Outline: as §2

CAL-85-1 [24] = assay: as above
Outline: as §2

DU-4475 [25] = assay: as above
Outline: as §2

HCC1143 [26] = assay: as above
Outline: as §2

HCC1599 [27] = assay: as above
Outline: as §2

HCC1937 [28] = assay: as above
Outline: as §2

HDQ-P1 [29] = assay: as above
Outline: as §2

Hs578T [30] = assay: as above
Outline: as §2

MDA-MB-231 [31] = assay: as above
Outline: as §2

MDA-MB-436 [32] = assay: as above
Outline: as §2

MDA-MB-453 [33] = assay: as above
Outline: as §2

MDA-MB-468 [34] = assay: as above
Outline: as §2

MFM-223 [35] = assay: as above
Outline: as §2

SK-BR-3 [36] = assay: as above
Outline: as §2

Compound: CCS(=O)(=O)c1cccc(-c2cc(C(=O)NC3CCN(C)CC3)c(C)c3[nH]c4ncc(C)cc4c23)c1 [TAK-901] (0.1 nM)
- normalised response (BT-474 [1]): 101%
- normalised response (BT-549 [2]): 106%
- normalised response (CAL-120 [3]): 97.4%
- normalised response (CAL-148 [4]): 101%
- normalised response (CAL-51 [5]): 122%
- normalised response (CAL-85-1 [6]): 103%
- normalised response (DU-4475 [7]): 106%
- normalised response (HCC1143 [8]): 108%
- normalised response (HCC1599 [9]): 108%
- normalised response (HCC1937 [10]): 91.8%
- normalised response (HDQ-P1 [11]): 98.9%
- normalised response (Hs578T [12]): 111%
- normalised response (MCF-10A): 109%
- normalised response (MDA-MB-231 [13]): 101%
- normalised response (MDA-MB-436 [14]): 93.8%
- normalised response (MDA-MB-453 [15]): 117%
- normalised response (MDA-MB-468 [16]): 100%
- normalised response (MFM-223 [17]): 106%
- normalised response (SK-BR-3 [18]): 113%
- normalised viability (BT-474 [19]): 76.6%
- normalised viability (BT-549 [20]): 112%
- normalised viability (CAL-120 [21]): 87.2%
- normalised viability (CAL-148 [22]): 102%
- normalised viability (CAL-51 [23]): 90.9%
- normalised viability (CAL-85-1 [24]): 83.7%
- normalised viability (DU-4475 [25]): 85.1%
- normalised viability (HCC1143 [26]): 94.9%
- normalised viability (HCC1599 [27]): 87%
- normalised viability (HCC1937 [28]): 105%
- normalised viability (HDQ-P1 [29]): 111%
- normalised viability (Hs578T [30]): 109%
- normalised viability (MDA-MB-231 [31]): 104%
- normalised viability (MDA-MB-436 [32]): 108%
- normalised viability (MDA-MB-453 [33]): 96.1%
- normalised viability (MDA-MB-468 [34]): 95.9%
- normalised viability (MFM-223 [35]): 96.7%
- normalised viability (SK-BR-3 [36]): 92%

Compound: O=C(c1ccc(OCCN2CCCCC2)cc1)c1c(-c2ccc(O)cc2)sc2cc(O)ccc12 [Raloxifene] (1 nM)
- normalised response (BT-474 [1]): 99.7%
- normalised response (BT-549 [2]): 104%
- normalised response (CAL-120 [3]): 97.9%
- normalised response (CAL-148 [4]): 108%
- normalised response (CAL-51 [5]): 114%
- normalised response (CAL-85-1 [6]): 101%
- normalised response (DU-4475 [7]): 102%
- normalised response (HCC1143 [8]): 109%
- normalised response (HCC1599 [9]): 97%
- normalised response (HCC1937 [10]): 102%
- normalised response (HDQ-P1 [11]): 107%
- normalised response (Hs578T [12]): 108%
- normalised response (MCF-10A): 109%
- normalised response (MDA-MB-231 [13]): 101%
- normalised response (MDA-MB-436 [14]): 105%
- normalised response (MDA-MB-453 [15]): 105%
- normalised response (MDA-MB-468 [16]): 101%
- normalised response (MFM-223 [17]): 99.6%
- normalised response (SK-BR-3 [18]): 110%
- normalised viability (BT-474 [19]): 71.6%
- normalised viability (BT-549 [20]): 95.2%
- normalised viability (CAL-120 [21]): 90.7%
- normalised viability (CAL-148 [22]): 98.2%
- normalised viability (CAL-51 [23]): 96.8%
- normalised viability (CAL-85-1 [24]): 103%
- normalised viability (DU-4475 [25]): 110%
- normalised viability (HCC1143 [26]): 86.1%
- normalised viability (HCC1599 [27]): 101%
- normalised viability (HCC1937 [28]): 88.3%
- normalised viability (HDQ-P1 [29]): 101%
- normalised viability (Hs578T [30]): 99.8%
- normalised viability (MDA-MB-231 [31]): 87.1%
- normalised viability (MDA-MB-436 [32]): 91.6%
- normalised viability (MDA-MB-453 [33]): 85%
- normalised viability (MDA-MB-468 [34]): 105%
- normalised viability (MFM-223 [35]): 91.2%
- normalised viability (SK-BR-3 [36]): 90.8%

Compound: CC(=O)O[C@H]1C(=O)[C@@]2(C)[C@H]([C@H](OC(=O)c3ccccc3)[C@]3(O)C[C@H](OC(=O)[C@H](O)[C@@H](NC(=O)c4ccccc4)c4ccccc4)C(C)=C1C3(C)C)[C@]1(OC(C)=O)CO[C@@H]1C[C@@H]2O [Paclitaxel] (0.1 nM)
- normalised response (BT-474 [1]): 95.5%
- normalised response (BT-549 [2]): 100%
- normalised response (CAL-120 [3]): 89.7%
- normalised response (CAL-148 [4]): 89.6%
- normalised response (CAL-51 [5]): 103%
- normalised response (CAL-85-1 [6]): 99.2%
- normalised response (DU-4475 [7]): 93.8%
- normalised response (HCC1143 [8]): 93.6%
- normalised response (HCC1599 [9]): 100%
- normalised response (HCC1937 [10]): 90.5%
- normalised response (HDQ-P1 [11]): 96.4%
- normalised response (Hs578T [12]): 100%
- normalised response (MCF-10A): 87.9%
- normalised response (MDA-MB-231 [13]): 96.6%
- normalised response (MDA-MB-436 [14]): 98.7%
- normalised response (MDA-MB-453 [15]): 89.9%
- normalised response (MDA-MB-468 [16]): 95.7%
- normalised response (MFM-223 [17]): 89.9%
- normalised response (SK-BR-3 [18]): 88.4%
- normalised viability (BT-474 [19]): 82%
- normalised viability (BT-549 [20]): 116%
- normalised viability (CAL-120 [21]): 90.6%
- normalised viability (CAL-148 [22]): 106%
- normalised viability (CAL-51 [23]): 93.8%
- normalised viability (CAL-85-1 [24]): 98.2%
- normalised viability (DU-4475 [25]): 115%
- normalised viability (HCC1143 [26]): 106%
- normalised viability (HCC1599 [27]): 102%
- normalised viability (HCC1937 [28]): 84.3%
- normalised viability (HDQ-P1 [29]): 82.6%
- normalised viability (Hs578T [30]): 103%
- normalised viability (MDA-MB-231 [31]): 73.8%
- normalised viability (MDA-MB-436 [32]): 95.8%
- normalised viability (MDA-MB-453 [33]): 97.5%
- normalised viability (MDA-MB-468 [34]): 105%
- normalised viability (MFM-223 [35]): 93.9%
- normalised viability (SK-BR-3 [36]): 90.2%

Compound: C[C@@H]1C=C2C(=O)O[C@@H]3CC[C@H](C1)[C@]23O [Galiellalactone] (5 nM)
- normalised response (BT-474 [1]): 106%
- normalised response (BT-549 [2]): 101%
- normalised response (CAL-120 [3]): 105%
- normalised response (CAL-148 [4]): 107%
- normalised response (CAL-51 [5]): 104%
- normalised response (CAL-85-1 [6]): 98.1%
- normalised response (DU-4475 [7]): 97.2%
- normalised response (HCC1143 [8]): 105%
- normalised response (HCC1599 [9]): 102%
- normalised response (HCC1937 [10]): 98%
- normalised response (HDQ-P1 [11]): 107%
- normalised response (Hs578T [12]): 107%
- normalised response (MCF-10A): 111%
- normalised response (MDA-MB-231 [13]): 103%
- normalised response (MDA-MB-436 [14]): 107%
- normalised response (MDA-MB-453 [15]): 108%
- normalised response (MDA-MB-468 [16]): 108%
- normalised response (MFM-223 [17]): 107%
- normalised response (SK-BR-3 [18]): 108%
- normalised viability (BT-474 [19]): 105%
- normalised viability (BT-549 [20]): 112%
- normalised viability (CAL-120 [21]): 81.3%
- normalised viability (CAL-148 [22]): 115%
- normalised viability (CAL-51 [23]): 106%
- normalised viability (CAL-85-1 [24]): 94.9%
- normalised viability (DU-4475 [25]): 104%
- normalised viability (HCC1143 [26]): 98.9%
- normalised viability (HCC1599 [27]): 88.1%
- normalised viability (HCC1937 [28]): 84.3%
- normalised viability (HDQ-P1 [29]): 120%
- normalised viability (Hs578T [30]): 109%
- normalised viability (MDA-MB-231 [31]): 93.7%
- normalised viability (MDA-MB-436 [32]): 94.6%
- normalised viability (MDA-MB-453 [33]): 97%
- normalised viability (MDA-MB-468 [34]): 96.7%
- normalised viability (MFM-223 [35]): 102%
- normalised viability (SK-BR-3 [36]): 94%
